Patent publication US3997549A, “N-arylsulfenylated derivatives of benzofuranyl methylcarbamates” (priority 1973, dated 1976)
Values after ≈ are worked out from the molar mass of the structure shown. Like-named read-outs stand apart in the source and are kept apart here.

Tests used:
houseflies = assay: whole plant or invertebrate; details: Musca domestica, topical, 24 h, read-out: Houseflies LD50
Description: Toxicity of the compounds of the present invention to houseflies was tested using the technique described by March and Metcalf in Bull. Calif. State Dept. Agr. […] Adult female houseflies were treated with one drop of acetone solution, applied to the prothorax, using a syringe calibrated to deliver 1.00 ± 0.05 mm^3 drops. Twenty flies were treated at each dosage, each test compound was applied at 8 to 10 dosage levels. Each test was replicated three times. […] A one-inch square of cotton saturated with 40% sugar solution was provided for food in each carton. The cartons of flies were held in a constant temperature chamber at 60° F and 60% relative humidity for 24 hours before mortality counts were made. Flies totally unable to make crawling or walking movements were counted as dead. LD50 values were calculated in the conventional manner.

Culex fatigans = assay: whole plant or invertebrate; details: Culex quinquefasciatus, 24 h, read-out: Mosquitoes LC50
Description: The appropriate amount of stock solution was added with stirring to 100 ml of tap water and 20-25 fourth instar larvae of Culex fatigans were placed in the solution. After twenty-four hours, the counts were taken. Larvae not able to rise to the surface on touch were counted as dead. Each concentration was run in duplicate and each material was run on two or three different days. The average percent mortality was plotted against the logarithm of the concentration (in ppm) and the LC50 value determined by inspection.

in vivo = details: mouse, po
Description: Acute oral toxicity of the compounds of the present invention to mice was determined after the manner of Hollingworth, Fukuto, and Metcalf in J. Agr. […] A dose of 0.25 ml of each solution was administered to each of four female white Swiss mice using the "bolus" - tipped syringe. […] Final mortality determinations were made forty-eight hours after treatment.

confused flour beetle [1] = assay: Initial contact activity, confused flour beetle; format: in vivo; details: Tribolium confusum; 1250 ppm, 48 h exposure; read-out: % Kill, FB (initial contact)
Description: (§1) Initial Contact Activity: One-half gram of test compound was dissolved in 40 ml of acetone and this solution was dispersed in 360 ml of water containing one drop of isooctyl phenyl polyethoxyethanol. An aliquot of this solution was diluted with water to provide a solution containing 1250 ppm of active ingredient. Test organisms and techniques were as follows: The activities against the Mexican bean beetle (Epilachna varivestis Muls.) and the southern army worm (Prodenia eridania [Cram.]) were evaluated by dipping the leaves of pinto bean plants into the test solution and infesting the leaves with the appropriate immature form insects when the foliage had dried; the activity against the pea aphid (Macrosiphum pisi [Harris]) was evaluated on broad bean plants whose leaves were dipped before infestation with adult aphids; the activity against the two-spotted spider mite (Tetranychus urticae [L.]) was evaluated on pinto bean plants whose leaves were dipped after infestation with adult mites; the activities against the milkweed bug (Oncopeltus fascinatus [Dallas]) and the plum curculio (Conotrachelus nenuphar [Herbst]) were evaluated by spraying the test solutions into glass dishes containing the adult insects; the activities against the granary weevil (Sitophilus granarius [L.]) and the confused flour beetle (Tribolium confusum [duVal]) were evaluated by introducing the insects into glass dishes which had been previously sprayed with test solution and allowed to dry. All organisms in the test were maintained in a holding room at 80° F. and 50% relative humidity for an exposure period of forty-eight hours. At this time the number of dead and living insects were counted and the percent kill was calculated.

confused flour beetle [2] = assay: Residual contact activity, confused flour beetle; format: in vivo; details: Tribolium confusum, 48 h; 1250 ppm; 7 days; read-out: % Kill, FB (residual contact)
Description: as §1
The residual contact activity of the compounds was determined on the same organisms using the technique described above, except that in each case the treated surface was allowed to dry and was exposed to normal light and air for seven days before introduction of the mites or insects. The compounds show a high order of residual activity toward the test insects.

southern army worm [3] = details: 2880 min
Mexican bean beetle [4] = assay: whole plant or invertebrate; details: Epilachna varivestis, 48 h, read-out: % Kill, BB (systemic)
pea aphid [5] = assay: whole plant or invertebrate; details: Acyrthosiphon pisum, 48 h, read-out: % Kill, PA (systemic)
two-spotted spider mite [6] = assay: whole plant or invertebrate; details: Tetranychus urticae, 48 h, read-out: % Kill, SM (systemic)
milkweed bug [7] = assay: Initial contact activity, milkweed bug; details: Oncopeltus fasciatus, 48 h, read-out: % Kill, MWB (initial contact)
plum curculio [8] = assay: Initial contact activity, plum curculio; details: Conotrachelus nenuphar, 48 h, read-out: % Kill, PC (initial contact)
milkweed bug [9] = assay: Residual contact activity, milkweed bug; details: Oncopeltus fasciatus, 48 h, read-out: % Kill, MWB (residual contact)
granary weevil [10] = assay: Initial contact activity, granary weevil; details: Sitophilus granarius, 48 h, read-out: % Kill, GW (initial contact)
plum curculio [11] = assay: Residual contact activity, plum curculio; details: Conotrachelus nenuphar, 48 h, read-out: % Kill, PC (residual contact)
granary weevil [12] = assay: Residual contact activity, granary weevil; details: Sitophilus granarius, 48 h, read-out: % Kill, GW (residual contact)
southern army worm [13] = assay: Initial contact activity, southern army worm; details: 1250 ppm, 48 h exposure
Mexican bean beetle [14] = assay: Initial contact activity, Mexican bean beetle; details: Epilachna varivestis, 48 h, read-out: % Kill, BB (initial contact)
southern army worm [15] = assay: Residual contact activity, southern army worm; details: 1250 ppm; 7 days; 2880 min
Mexican bean beetle [16] = assay: Residual contact activity, Mexican bean beetle; details: Epilachna varivestis, 48 h, read-out: % Kill, BB (residual contact)
two-spotted spider mite [17] = assay: Initial contact activity, two-spotted spider mite; details: Tetranychus urticae, 48 h, read-out: % Kill, SM (initial contact)
two-spotted spider mite [18] = assay: Residual contact activity, two-spotted spider mite; details: Tetranychus urticae, 48 h, read-out: % Kill, SM (residual contact)
pea aphid [19] = assay: Initial contact activity, pea aphid; details: Acyrthosiphon pisum, 48 h, read-out: % Kill, PA (initial contact)
pea aphid [20] = assay: Residual contact activity, pea aphid; details: Acyrthosiphon pisum, 48 h, read-out: % Kill, PA (residual contact)
[21] = 39 ppm soil watering, separate test vs carbofuran
[22] = 39 ppm soil watering, group printed before the slash (separate test vs carbofuran)

Structure (SMILES) | LD50 (houseflies) [mg/kg] | LC50 (Culex fatigans) [ng/mL] | LD50 at 48 h (in vivo) [mg/kg] | % Kill, AW (systemic) (southern army worm [3]; 156 ppm soil watering) [%] | mortality at 39 ppm (Mexican bean beetle [4]) [%] | mortality at 156 ppm (Mexican bean beetle [4]) [%] | mortality at 39 ppm (pea aphid [5]) [%] | mortality at 39 ppm (two-spotted spider mite [6]) [%] | mortality at 156 ppm (two-spotted spider mite [6]) [%] | mortality at 1250 ppm (milkweed bug [7]) [%] | mortality at 1250 ppm (plum curculio [8]) [%] | mortality at 1250 ppm (milkweed bug [9]) [%] | mortality at 1250 ppm (granary weevil [10]) [%] | mortality at 1250 ppm (plum curculio [11]) [%] | mortality at 1250 ppm (granary weevil [12]) [%] | % Kill, AW (initial contact) (southern army worm [13]) [%] | mortality at 1250 ppm (Mexican bean beetle [14]) [%] | % Kill, AW (residual contact) (southern army worm [15]) [%] | mortality at 1250 ppm (Mexican bean beetle [16]) [%] | mortality at 1250 ppm (two-spotted spider mite [17]) [%] | other results
Cc1ccccc1SN(C)C(=O)Oc1cccc2c1OC(C)(C)C2 [Example II, 2,3-Dihydro-2,2-dimethyl-7-benzofuranyl (methyl)(2-methylphenylthio)carbamate] | 3.7 | 4 (≈ 11.6 nM) | 100 to 125 | 100 | 100 | 100 | 100 | 5 | 5 | 100 | 100 | 100 | 100 | 100 | 100 | 100 | 100 | 100 | 100 | 28 | mortality at 1250 ppm (confused flour beetle [1]): 98%; mortality at 1250 ppm (confused flour beetle [2]): 98%; % Kill, AW (systemic) (southern army worm [3]; [21]): 85%; mortality at 1250 ppm (two-spotted spider mite [18]): 13%
CN(Sc1ccc(Cl)cc1)C(=O)Oc1cccc2c1OC(C)(C)C2 [Example V, 2,3-Dihydro-2,2-dimethyl-7-benzofuranyl (4-chlorophenylthio)(methyl)carbamate] | 12.5 | 2 (≈ 5.5 nM) | 50 | 80 | 95 | 100 | 100 | 29 | 33 | 100 | 100 | 100 | 100 | 95 | 100 | 100 | 100 | 100 | 100 | 100 | % Kill, AW (systemic) (southern army worm [3]; [22]): 50%; mortality at 156 ppm (pea aphid [5]): 100%; mortality at 1250 ppm (pea aphid [19]): 100%; mortality at 1250 ppm (pea aphid [20]): 95%; mortality at 1250 ppm (two-spotted spider mite [18]): 5%
CN(Sc1ccc(C(C)(C)C)cc1)C(=O)Oc1cccc2c1OC(C)(C)C2 [Example III, 2,3-Dihydro-2,2-dimethyl-7-benzofuranyl (4-tert-butylphenylthio)(methyl)carbamate] | 2.7 | 2.5 (≈ 6.48 nM) | 75 | 0 | 56 | 100 | 5 | 1 | 4 | 100 | 100 | 100 | 100 | 95 | 100 | 100 | 100 | 31 | 100 | 27 | mortality at 1250 ppm (confused flour beetle [1]): 100%; mortality at 1250 ppm (confused flour beetle [2]): 100%; % Kill, AW (systemic) (southern army worm [3]; [21]): 0%; mortality at 156 ppm (pea aphid [5]): 43%; mortality at 1250 ppm (two-spotted spider mite [18]): 2%
CN(Sc1ccc2c(c1)OCO2)C(=O)Oc1cccc2c1OC(C)(C)C2 [XIV, 2,3-Dihydro-2,2-dimethyl-7-benzofuranyl (methyl)(3,4-methylenedioxyphenylthio)carbamate] | 5 | 6.5 (≈ 17.4 nM) | 10 to 25 | 64 | 90 | 94 | 100 | 10 | 16 | 100 | 100 | 100 | 100 | 80 | 100 | 100 | 100 | 100 | 100 | 38 | % Kill, AW (systemic) (southern army worm [3]; [22]): 14%; mortality at 156 ppm (pea aphid [5]): 100%; mortality at 1250 ppm (pea aphid [19]): 100%; mortality at 1250 ppm (pea aphid [20]): 10%; mortality at 1250 ppm (two-spotted spider mite [18]): 2%
